Tests used:
[1] = biological target: T1, PCSK9 (Homo sapiens, UniProt Q8NBP7, G670E/V474I); experiment: Assay 3 PCSK9 LDL-C uptake assay in HepG2 cells; assay type: cell-based; set-up: TEV site (C); His6 (C); host or cells: added to HepG2 (ATCC #HB-8065); settings: 125 nM PCSK9, pHrodo Red-LDL, read-out: Assay 3 LDL uptake potency
Method in brief: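 HepG2 cells were plated for 24 h, then exposed for 24 h at 37 °C to compounds (half-log series, 10 μM top) with 125 nM exogenous PCSK9. pHrodo Red-LDL ([…]) uptake was then imaged by fluorescence at 4 h and 24 h. Signal was normalized as % effect between DMSO and 100 nM evolocumab, with a four-parameter logistic fit.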

[2] = biological target: T2, potassium ion channel hERG (Homo sapiens, UniProt Q12809); experiment: Assay 5 hERG assay (patch clamp, CHO cells over-expressing hERG); assay type: cell-based; settings: SyncroPatch 384PE, room temperature, geometric mean, read-out: Assay 5 (hERG Hu CHO if EPh CR-Syncro) GMean IC50
T2 construct: expressed in transfected cells; host or cells: Chinese hamster ovary K1 (CHO)
Method in brief: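 hERG currents recorded by automated patch clamp at room temperature in CHO-K1 cells, 6-point cumulative concentrations. SyncroPatch runs used KF-based internal (pH 7.2) and NMDG-containing external solution (pH 7.4), 0.33% DMSO; QPatchII runs used 2% or 0.4% DMSO. Only wells meeting seal-resistance and current-size criteria kept.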

[3] = biological target: T1, PCSK9; experiment: biochemical

T1 sequence (Q8NBP7 with tags, fused parts or gaps V474I/G670E): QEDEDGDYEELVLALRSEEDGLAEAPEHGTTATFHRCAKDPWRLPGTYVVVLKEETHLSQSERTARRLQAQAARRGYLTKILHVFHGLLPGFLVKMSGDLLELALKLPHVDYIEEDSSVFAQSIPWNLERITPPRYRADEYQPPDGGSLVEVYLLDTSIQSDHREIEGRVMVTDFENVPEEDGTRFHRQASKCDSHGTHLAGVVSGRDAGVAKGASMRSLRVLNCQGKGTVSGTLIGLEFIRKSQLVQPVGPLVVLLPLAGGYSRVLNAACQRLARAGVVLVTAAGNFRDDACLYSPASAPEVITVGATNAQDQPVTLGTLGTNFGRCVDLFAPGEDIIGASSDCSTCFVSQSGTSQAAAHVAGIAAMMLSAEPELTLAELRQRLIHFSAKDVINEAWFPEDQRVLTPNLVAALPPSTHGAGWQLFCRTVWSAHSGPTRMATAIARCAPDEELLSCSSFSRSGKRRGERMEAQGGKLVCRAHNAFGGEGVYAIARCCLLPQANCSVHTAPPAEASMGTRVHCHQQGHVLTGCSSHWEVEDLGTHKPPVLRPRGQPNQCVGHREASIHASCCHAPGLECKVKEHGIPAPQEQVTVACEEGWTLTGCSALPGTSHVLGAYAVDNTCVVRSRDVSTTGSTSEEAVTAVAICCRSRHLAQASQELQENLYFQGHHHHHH
T2 sequence (Q12809 whole entry): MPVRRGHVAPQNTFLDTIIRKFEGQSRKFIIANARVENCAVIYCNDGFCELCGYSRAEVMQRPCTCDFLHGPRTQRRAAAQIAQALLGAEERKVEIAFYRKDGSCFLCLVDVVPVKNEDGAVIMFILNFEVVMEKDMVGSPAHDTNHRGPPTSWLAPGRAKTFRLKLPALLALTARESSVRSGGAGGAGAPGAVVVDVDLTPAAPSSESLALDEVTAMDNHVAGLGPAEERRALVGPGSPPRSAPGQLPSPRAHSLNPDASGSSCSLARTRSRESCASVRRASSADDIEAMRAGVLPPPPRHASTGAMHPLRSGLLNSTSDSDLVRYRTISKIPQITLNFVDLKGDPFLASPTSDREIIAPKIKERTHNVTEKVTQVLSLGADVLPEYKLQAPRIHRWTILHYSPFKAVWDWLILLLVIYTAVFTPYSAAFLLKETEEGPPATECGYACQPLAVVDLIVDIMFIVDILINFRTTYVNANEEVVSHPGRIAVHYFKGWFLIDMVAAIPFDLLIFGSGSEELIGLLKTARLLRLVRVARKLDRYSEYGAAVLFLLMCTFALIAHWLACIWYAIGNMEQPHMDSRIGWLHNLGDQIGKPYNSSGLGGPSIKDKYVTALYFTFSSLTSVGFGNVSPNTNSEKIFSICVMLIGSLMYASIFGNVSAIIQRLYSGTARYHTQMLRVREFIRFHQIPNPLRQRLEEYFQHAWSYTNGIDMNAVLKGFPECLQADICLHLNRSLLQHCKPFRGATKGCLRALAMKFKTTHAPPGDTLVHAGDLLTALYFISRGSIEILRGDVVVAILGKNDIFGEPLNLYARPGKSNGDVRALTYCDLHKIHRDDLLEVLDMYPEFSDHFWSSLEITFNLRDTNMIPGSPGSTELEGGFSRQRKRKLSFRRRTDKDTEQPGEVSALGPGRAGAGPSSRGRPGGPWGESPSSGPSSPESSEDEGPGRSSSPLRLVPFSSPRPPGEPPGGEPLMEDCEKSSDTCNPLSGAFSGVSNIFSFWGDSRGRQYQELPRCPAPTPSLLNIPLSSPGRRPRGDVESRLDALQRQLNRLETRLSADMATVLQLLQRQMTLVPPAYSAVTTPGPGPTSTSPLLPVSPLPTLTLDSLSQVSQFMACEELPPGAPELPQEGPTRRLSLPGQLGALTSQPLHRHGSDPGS

**Q.** Which EC50 [1] does the source give for `Cn1c(=O)n(-c2ccc(N[C@H]3CC[C@H](Nc4ncc(C5CC5)nn4)C3)nc2)c2ccc(C(=O)O)cc21` [Example 121, 1-(6-(((1S,3S)-3-((6-Cyclopropyl-1,2,4-triazin-3-yl)amino)cyclopentyl)amino)pyridin-3-yl)-3-methyl-2-oxo-2,3-dihydro-1H-benzo[d]imidazole-5-carboxylic acid] here?
**A.** 100 nM

**Q.** What about the IC50 [2] of the same compound?
**A.** > 40000 nM

**Q.** What about the IC50 [3] of the same compound?
**A.** 1 nM

**Q.** Which results are given for `Cc1cnc(N[C@H]2CC[C@H](Nc3ccc(-n4cc(C#N)ccc4=O)cn3)C2)nn1` [Example 128, 6′-(((1S,3S)-3-((6-Methyl-1,2,4-triazin-3-yl)amino)cyclopentyl)amino)-2-oxo-2H-[1,3′-bipyridine]-5-carbonitrile]?
**A.** EC50 [1]: 800 nM; IC50 [2]: > 40000 nM; IC50 [3]: 20 nM

**Q.** Which results are given for `Cc1cnc(N[C@H]2CC[C@H](Nc3ccc(-n4cccc(Cl)c4=O)cn3)C2)nn1` [Example 129, 3-Chloro-6′-(((1S,3S)-3-((6-methyl-1,2,4-triazin-3-yl)amino)cyclopentyl)amino)-2H-[1,3′-bipyridin]-2-one]?
**A.** EC50 [1]: 100 nM; IC50 [2]: > 40000 nM; IC50 [3]: 1.6 nM

**Q.** Which EC50 [1] does the source give for `Cc1cnc(N[C@H]2CC[C@H](Nc3ccc(-n4cccc(C)c4=O)cn3)C2)nn1` [Example 131, 3-Methyl-6′-(((1S,3S)-3-((6-methyl-1,2,4-triazin-3-yl)amino)cyclopentyl)amino)-2H-[1,3′-bipyridin]-2-one] here?
**A.** 100 nM

**Q.** What about the IC50 [2] of the same compound?
**A.** > 72600 nM

**Q.** And the IC50 [3]?
**A.** 2.7 nM

**Q.** How did the EC50 [1] turn out when `COc1cccn(-c2ccc(N[C@H]3CC[C@H](Nc4ncc(C)nn4)C3)nc2)c1=O` [Example 132, 3-Methoxy-6′-(((1S,3S)-3-((6-methyl-1,2,4-triazin-3-yl)amino)cyclopentyl)amino)-2H-[1,3′-bipyridin]-2-one] was run?
**A.** 100 nM

**Q.** And the IC50 [2]?
**A.** > 40000 nM

**Q.** What about the IC50 [3] of the same compound?
**A.** 2.3 nM

**Q.** `COc1ccc(=O)n(-c2ccc(N[C@H]3CC[C@H](Nc4ncc(C)nn4)C3)nc2)c1` [Example 133, 5-Methoxy-6′-(((1S,3S)-3-((6-methyl-1,2,4-triazin-3-yl)amino)cyclopentyl)amino)-2H-[1,3′-bipyridin]-2-one] was tested. Which EC50 [1] did it give?
**A.** 400 nM

**Q.** What about the IC50 [2] of the same compound?
**A.** > 40000 nM

**Q.** And the IC50 [3]?
**A.** 17 nM

**Q.** Which results are given for `Cc1cnc(N[C@H]2CC[C@H](Nc3ccc(-n4cc(Cl)ccc4=O)cn3)C2)nn1` [Example 134, 5-Chloro-6′-(((1S,3S)-3-((6-methyl-1,2,4-triazin-3-yl)amino)cyclopentyl)amino)-2H-[1,3′-bipyridin]-2-one]?
**A.** EC50 [1]: 500 nM; IC50 [2]: > 40000 nM; IC50 [3]: 8.4 nM

**Q.** Which results are given for `Cc1cnc(N[C@H]2CC[C@H](Nc3ccc(-n4cccc(C(F)(F)F)c4=O)cn3)C2)nn1` [Example 135, 6′-(((1S,3S)-3-((6-Methyl-1,2,4-triazin-3-yl)amino)cyclopentyl)amino)-3-(trifluoromethyl)-2H-[1,3′-bipyridin]-2-one]?
**A.** EC50 [1]: 100 nM; IC50 [2]: > 40000 nM; IC50 [3]: 2.8 nM

**Q.** For `Cc1cnc(N[C@H]2CC[C@H](Nc3ccc(-n4cccc(OC(F)F)c4=O)cn3)C2)nn1` [Example 187, 3-(Difluoromethoxy)-6′-(((1S,3S)-3-((6-methyl-1,2,4-triazin-3-yl)amino)cyclopentyl)amino)-2H-[1,3′-bipyridin]-2-one], which EC50 [1] is on record?
**A.** 100 nM

**Q.** And the IC50 [2]?
**A.** > 40100 nM

**Q.** What about the IC50 [3] of the same compound?
**A.** 2.1 nM

**Q.** Which EC50 [1] does the source give for `Cc1cnc(N[C@H]2CC[C@H](Nc3ccc(-n4c(=O)ccc5cccnc54)cn3)C2)nn1` [Example 197, 1-(6-(((1S,3S)-3-((6-Methyl-1,2,4-triazin-3-yl)amino)cyclopentyl)amino)pyridin-3-yl)-1,8-naphthyridin-2(1H)-one] here?
**A.** 100 nM

**Q.** What about the IC50 [2] of the same compound?
**A.** > 40100 nM

**Q.** And the IC50 [3]?
**A.** 2.5 nM

**Q.** `Cc1cnc(N[C@H]2CC[C@H](Nc3ccc(-n4cccc(-c5cnn(C)c5)c4=O)cn3)C2)nn1` [Example 198, 6′-(((1S,3S)-3-((6-Methyl-1,2,4-triazin-3-yl)amino)cyclopentyl)amino)-3-(1-methyl-1H-pyrazol-4-yl)-2H-[1,3′-bipyridin]-2-one] was tested. Which EC50 [1] did it give?
**A.** 100 nM

**Q.** What about the IC50 [2] of the same compound?
**A.** > 40100 nM

**Q.** And the IC50 [3]?
**A.** 2.9 nM

**Q.** `Cc1cnc(N[C@H]2CC[C@H](Nc3ccc(-n4c(=O)n(C)c5ccc(C#N)cc54)cn3)C2)nn1` [Example 210, 1-Methyl-3-(6-(((1S,3S)-3-((6-methyl-1,2,4-triazin-3-yl)amino)cyclopentyl)amino)pyridin-3-yl)-2-oxo-2,3-dihydro-1H-benzo[d]imidazole-5-carbonitrile] was tested. Which EC50 [1] did it give?
**A.** 100 nM

**Q.** And the IC50 [2]?
**A.** > 40100 nM

**Q.** What about the IC50 [3] of the same compound?
**A.** 0.9 nM

**Q.** Which results are given for `Cc1cnc(N[C@H]2CC[C@H](Nc3ccc(-n4c(=O)n(C)c5cccnc54)cn3)C2)nn1` [Example 212, 1-Methyl-3-(6-(((1S,3S)-3-((6-methyl-1,2,4-triazin-3-yl)amino)cyclopentyl)amino)pyridin-3-yl)-1,3-dihydro-2H-imidazo[4,5-b]pyridin-2-one]?
**A.** EC50 [1]: 100 nM; IC50 [2]: > 40100 nM; IC50 [3]: 1.8 nM

**Q.** Which results are given for `Cc1cnc(N[C@H]2CC[C@H](Nc3ccc(-n4nccc(Cl)c4=O)cn3)C2)nn1` [Example 221, 4-Chloro-2-(6-(((1S,3S)-3-((6-methyl-1,2,4-triazin-3-yl)amino)cyclopentyl)amino)pyridin-3-yl)pyridazin-3(2H)-one]?
**A.** EC50 [1]: 300 nM; IC50 [2]: > 40100 nM; IC50 [3]: 1.6 nM

Source: US20240228469A1, “PCSK9 INHIBITORS AND METHODS OF USE THEREOF” (AstraZeneca AB, priority 2022, published 2024)
